Source: patent US10800782B2, “Inhibitors of cellular metabolic processes” (Agios Pharmaceuticals, Inc., priority 2016, dated 2020)

Each compound was assayed against T1, MAT2A (Homo sapiens, UniProt P31153) (assay: MAT2A biochemical assay (colorimetric inorganic phosphate detection, PiColorLock)). Settings: recombinant His6-tagged MAT2A 1 μg/ml; 60 minutes preincubation at 25° C.; L-Met 80 μM, ATP 100 μM; 60 minutes reaction; read at 623 nm; read-out: MAT2A Inhibition Score.
T1 construct: His6; made in house; host or cells: SF9 insect cells
Description: In the reaction catalyzed by MAT2A enzyme, L-Met and ATP were converted to SAM, inorganic phosphate, and inorganic diphosphate. […] The concentration of malachite green phosphomolybdate produced in the detection reaction is thus directly related to the quantity of product produced by the MAT2A enzyme. Multiple commercial kits exist for this method of phosphate detection and quantification, such as PiColorLock Gold (Innova Biosciences). Typical reaction was performed in 50 μl final volume, containing buffer (Tris, pH 8.0, 50 mM KCl, 15 mM MgCl2, 300 uM EDTA, bovine serum albumin at 0.005% w/v) and 1 μg/ml MAT2A. Compounds were added in 1 μl of DMSO at the desired concentration; a typical dose response curve contained ten points with three-fold dilution between compound concentrations. […] The reaction was allowed to proceed for 60 minutes at room temperature then halted by the addition of 13 μl of PiColor Lock reagent. After a further 5 minutes of incubation at room temperature, […] of PiColor Stabilizer was added and the reactions were further incubated at 25° C. for 25 minutes. […] Recombinant MAT2A protein was expressed in SF9 insect cells and purified by metal chelate affinity chromatography, using methods well known in the art. After expression of His6-tagged MAT2A cells were disrupted by 4 passes through an M-Yl 10 Micro fluidizer (Microfluidics) set to 500 psi, and then centrifuged at 22,000 rcf for 20 min at 4° C. The supernatant was harvested and loaded at 15 cm/h on a Histrap FF 5*1 ml column (GE) which was equilibrated with 50 mM Tris, 500 mM NaCl, pH7.4. Host cell contaminants were removed by washing the column with equilibration buffer followed by equilibration buffer containing 20 mM imidazole and 60 mM imidazole to baseline. MAT2A protein was eluted by the addition of buffer containing 250 mM imidazole, dialized into 50 mM NaCl, 50 mM Tris, pH 7.4, flash frozen in liquid nitrogen, and stored at −80° C. until use.

T1 sequence (P31153 whole entry): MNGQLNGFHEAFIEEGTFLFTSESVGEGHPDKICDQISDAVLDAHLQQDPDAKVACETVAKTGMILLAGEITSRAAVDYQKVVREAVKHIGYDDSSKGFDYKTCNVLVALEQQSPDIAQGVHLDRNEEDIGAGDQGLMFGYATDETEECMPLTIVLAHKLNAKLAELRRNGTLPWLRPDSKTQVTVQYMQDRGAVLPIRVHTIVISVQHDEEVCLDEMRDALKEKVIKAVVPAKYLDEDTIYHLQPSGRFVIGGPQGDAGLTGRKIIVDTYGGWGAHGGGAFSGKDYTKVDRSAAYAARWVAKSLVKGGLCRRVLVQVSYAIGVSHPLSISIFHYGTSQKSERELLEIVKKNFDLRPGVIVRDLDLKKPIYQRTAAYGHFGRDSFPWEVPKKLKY

Compound	IC50
COc1ccc(-c2c(Nc3ncnc(N)n3)[nH]c3c(C4=CCCCC4)c(-c4ccccc4)nn3c2=O)cc1 [Compound 164, 5-((4-amino-1,3,5-triazin-2-yl)amino)-3-(cyclohex-1-en-1-yl)-6-(4-methoxyphenyl)-2-phenylpyrazolo[1,5-a]pyrimidin-7(4H)-one]	< 100 nM
COc1ccc(-c2c(C)[nH]c3c(C4=CCCCC4)c(-c4ccccc4)nn3c2=O)cc1 [Compound 212, 3-(cyclohex-1-en-1-yl)-6-(4-methoxyphenyl)-5-methyl-2-phenylpyrazolo[1,5-a]pyrimidin-7(4H)-one]	< 100 nM
COc1ccc(-c2c(Nc3ccc(Cl)nn3)[nH]c3c(-c4ccccc4)c(-c4ccccc4)nn3c2=O)cc1 [Compound 125, 5-((6-chloropyridazin-3-yl)amino)-6-(4-methoxyphenyl)-2,3-diphenylpyrazolo[1,5-a]pyrimidin-7(4H)-one]	< 100 nM
COc1ccc(-c2c(Nc3cncnc3)[nH]c3c(-c4ccccc4)c(-c4ccccc4)nn3c2=O)cc1 [Compound 120, 6-(4-methoxyphenyl)-2,3-diphenyl-5-(pyrimidin-5-ylamino)pyrazolo[1,5-a]pyrimidin-7(4H)-one]	< 100 nM
COc1ccc(-c2c(Oc3ccccc3)[nH]c3c(-c4ccccc4)c(-c4ccccc4)nn3c2=O)cc1 [Compound 355, 6-(4-methoxyphenyl)-5-phenoxy-2,3-diphenylpyrazolo[1,5-a]pyrimidin-7(4H)-one]	1000 to 10000 nM
COc1ccc(-c2c(C)[nH]c3c(C4=CCOCC4)c(-c4ccccc4)nn3c2=O)cc1 [Compound 218, 3-(3,6-dihydro-2H-pyran-4-yl)-6-(4-methoxyphenyl)-5-methyl-2-phenylpyrazolo[1,5-a]pyrimidin-7(4H)-one]	< 100 nM
COc1ccc(-c2c(Nc3ccccc3)[nH]c3c(-c4ccccc4)c(-c4ccccc4)nn3c2=O)cc1 [Compound 356, 6-(4-methoxyphenyl)-2,3-diphenyl-5-(phenylamino)pyrazolo[1,5-a]pyrimidin-7(4H)-one]	100 to 1000 nM
COc1ccc(-c2c(NC3=NCCS3)[nH]c3c(-c4ccccc4)c(-c4ccccc4)nn3c2=O)cc1 [Compound 143, 5-((4,5-dihydrothiazol-2-yl)amino)-6-(4-methoxyphenyl)-2,3-diphenylpyrazolo[1,5-a]pyrimidin-7(4H)-one]	< 100 nM
COc1ccc(-c2c(Nc3ccc(Cl)cn3)[nH]c3c(-c4ccccc4)c(-c4ccccc4)nn3c2=O)cc1 [Compound 106, 5-((5-chloropyridin-2-yl)amino)-6-(4-methoxyphenyl)-2,3-diphenylpyrazolo[1,5-a]pyrimidin-7(4H)-one]	< 100 nM
COc1ccc(-c2c(Nc3ccccn3)[nH]c3c(C4=CCCCC4)c(-c4ccccn4)nn3c2=O)cc1 [Compound 203, 3-(cyclohex-1-en-1-yl)-6-(4-methoxyphenyl)-2-(pyridin-2-yl)-5-(pyridin-2-ylamino)pyrazolo[1,5-a]pyrimidin-7(4H)-one]	< 100 nM
Cc1[nH]c2c(N3CCCCC3)c(-c3ccccc3)nn2c(=O)c1-c1ccncc1 [Compound 304, 5-methyl-2-phenyl-3-(piperidin-1-yl)-6-(pyridin-4-yl)pyrazolo[1,5-a]pyrimidin-7(4H)-one]	100 to 1000 nM
Cc1[nH]c2c(C3=CCCCC3)c(-c3ccccc3)nn2c(=O)c1-c1ccc(OC(=O)[C@@H](N)C(C)C)cc1 [Compound 294, (S)-4-(3-cyclohexenyl-5-methyl-7-oxo-2-phenyl-4,7-dihydropyrazolo[1,5-a]pyrimidin-6-yl)phenyl 2-amino-3-methylbutanoate]	< 100 nM
CCOC(=O)n1ccc(Nc2[nH]c3c(-c4ccccc4)c(-c4ccccc4)nn3c(=O)c2-c2ccc(OC)cc2)n1 [Compound 287, ethyl 3-((6-(4-methoxyphenyl)-7-oxo-2,3-diphenyl-4,7-dihydropyrazolo[1,5-a]pyrimidin-5-yl)amino)-1H-pyrazole-1-carboxylate]	< 100 nM

Continued, values first:

IC50	Compound
< 100 nM	COc1ccc(-c2c(Nc3cc(O)ccn3)[nH]c3c(-c4ccccc4)c(-c4ccccc4)nn3c2=O)cc1 [Compound 109, 5-((4-hydroxypyridin-2-yl)amino)-6-(4-methoxyphenyl)-2,3-diphenylpyrazolo[1,5-a]pyrimidin-7(4H)-one]
100 to 1000 nM	CCc1[nH]c2c(-c3ccccc3)c(-c3ccccc3)nn2c(=O)c1-c1ccc(OC)cc1 [Compound 312, 5-ethyl-6-(4-methoxyphenyl)-2,3-diphenylpyrazolo[1,5-a]pyrimidin-7(4H)-one]
< 100 nM	Cc1[nH]c2c(-c3ccccc3)c(-c3ccccc3)nn2c(=O)c1-c1ccc2ncn(C)c2c1 [Compound 256, 5-methyl-6-(1-methyl-1H-benzo[d]imidazol-6-yl)-2,3-diphenylpyrazolo[1,5-a]pyrimidin-7(4H)-one]
< 100 nM	Cc1[nH]c2c(-c3ccccc3)c(-c3ccc(N)cc3)nn2c(=O)c1-c1ccc2ncccc2c1 [Compound 250, 2-(4-aminophenyl)-5-methyl-3-phenyl-6-(quinolin-6-yl)pyrazolo[1,5-a]pyrimidin-7(4H)-one]
< 100 nM	Cc1[nH]c2c(-c3ccccc3)c(-c3cc[nH]n3)nn2c(=O)c1-c1ccc2ncccc2c1 [Compound 280, 5-methyl-3-phenyl-2-(1H-pyrazol-3-yl)-6-(quinolin-6-yl)pyrazolo[1,5-a]pyrimidin-7(4H)-one]
< 100 nM	CNCc1[nH]c2c(-c3ccccc3)c(-c3ccccc3)nn2c(=O)c1-c1ccc2ncccc2c1 [Compound 278, 5-((methylamino)methyl)-2,3-diphenyl-6-(quinolin-6-yl)pyrazolo[1,5-a]pyrimidin-7(4H)-one]
< 100 nM	COc1ccc(-c2c(Nc3ccc(N)nn3)[nH]c3c(-c4ccccc4)c(-c4ccccc4)nn3c2=O)cc1 [Compound 123, 5-((6-aminopyridazin-3-yl)amino)-6-(4-methoxyphenyl)-2,3-diphenylpyrazolo[1,5-a]pyrimidin-7(4H)-one]
< 100 nM	COc1ccc(-c2c(Nc3ncnc(N)n3)[nH]c3c(-c4ccccc4)c(-c4ccccc4)nn3c2=O)cc1 [Compound 134, 5-((4-amino-1,3,5-triazin-2-yl)amino)-6-(4-methoxyphenyl)-2,3-diphenylpyrazolo[1,5-a]pyrimidin-7(4H)-one]
< 100 nM	COc1ccc(-c2c(Nc3nccnc3O)[nH]c3c(-c4ccccc4)c(-c4ccccc4)nn3c2=O)cc1 [Compound 127, 5-((3-hydroxypyrazin-2-yl)amino)-6-(4-methoxyphenyl)-2,3-diphenylpyrazolo[1,5-a]pyrimidin-7(4H)-one]
< 100 nM	O=C(CO)Nc1[nH]c2c(-c3ccccc3)c(-c3ccccc3)nn2c(=O)c1-c1ccc2ncccc2c1 [Compound 173, 2-hydroxy-N-(7-oxo-2,3-diphenyl-6-(quinolin-6-yl)-4,7-dihydropyrazolo[1,5-a]pyrimidin-5-yl)acetamide]
< 100 nM	COc1ccc(-c2c(Nc3cc(N)[nH]n3)[nH]c3c(-c4ccccc4)c(-c4ccccc4)nn3c2=O)cc1 [Compound 186, 5-((5-amino-1H-pyrazol-3-yl)amino)-6-(4-methoxyphenyl)-2,3-diphenylpyrazolo[1,5-a]pyrimidin-7(4H)-one]
1000 to 10000 nM	COc1cc(-c2nn3c(=O)c(-c4ccc5ncccc5c4)c(C)[nH]c3c2-c2ccccc2)ccn1 [Compound 351, 2-(2-methoxypyridin-4-yl)-5-methyl-3-phenyl-6-(quinolin-6-yl)pyrazolo[1,5-a]pyrimidin-7(4H)-one]
